Starred links: 1 amine or outer side, 2 acyl side, 3 side chain; linkers in the order of their positions; H or OH if unused. Non-standard residues stand in square brackets, D forms with d. Residues, ends and D or L forms follow the SMILES beside them. X1 = O=C(Cc1cccc(/N=N/c2cccc(CN[*:1])c2)c1)[*:2]; X2 = O=C(Cc1cccc(/N=N\c2cccc(CN[*:1])c2)c1)[*:2]
What was measured:
[1] = cis-trans photoisomerization by UV/Vis spectroscopy; format: physicochemical; settings: UV 330 nm (trans→cis), blue 440 nm (cis→trans), listed as names the isomer
Description: Switching kinetics in response to blue (λ=440 nm; cis→trans) and UV (λ=330 nm; trans→cis) light were robust and fast, with no evidence of degradation or bleaching (Figure 2 b; see Figure S2 and Table S2 in the Supporting Information).

mouse islets = assay: Glucose-stimulated insulin secretion from isolated islets; format: cell-based; settings: 150 nM, 8 mM glucose, n=12 animals; for augmentation of glucose-stimulated insulin secretion: mouse islets, 30 min, dark (trans) or 350 nm light (cis)
Procedure: (§1) All procedures involving primary tissue were regulated by the Home Office […]
(§2) Isolation of rodent islets
(§3) Islets were isolated from 8-12 week old female C57BL6 mice, as previously detailed,[2] and maintained in Roswell Park Memorial Institute (RPMI) medium supplemented with 10% foetal calf serum, 100 U/mL penicillin and 100 µg/mL […]
transilluminator to induce cis-isomerization, or kept in the dark to maintain the trans-isomer. In addition, for HTS Ca2+ assays, λ = 340 ± 10 nm or λ = […] was delivered between acquisitions using the platereader’s inbuilt […]
Batches of six to eight islets were incubated for 30 min in Krebs-HEPES-bicarbonate solution containing in mM: 130 NaCl, 3.6 KCl, 1.5 CaCl2, 0.5 MgSO4, 0.5 NaH2PO4, 2 NaHCO3, 10 HEPES and 0.1% (wt/vol) bovine serum albumin, pH 7.4.[2] Treatments were applied as indicated and photoswitching performed at λ = 340 ± 10 nm using a BMG Fluostar Optima platereader, as above. Insulin concentrations in the supernatant were measured using a Cisbio HTRF assay according to the low-range (sensitive) protocol.
(§4) Non-multifactorial comparisons were made using Student’s t-test. Multifactorial comparisons were made using either one- or two-way ANOVA, or the Kruskal-Wallis test, followed by pairwise comparisons using Bonferonni’s or Dunn’s tests.
(§5) Log-transformed concentration-response curves were fitted using non-linear regression and the Hill equation. All analyses were conducted using Graphpad Prism (Graphpad Software) and IgorPro, and results deemed significant at […]

MIN6 beta cells [2] = format: cell-based; settings: for signaling pathways engaged (Ca2+ rises with pathway antagonists): MIN6 beta cells, 150 nM, >8 mM glucose, antagonists of Epac2, L-type Ca2+ channels, KATP, IP3R, PKA, n=8 repeats
Procedure: as §1
MIN6 cells (a kind gift from Dr Jun-ichi Miyazaki, Osaka University) […]
HEPES, 0.0005% β-mercaptoethanol 100 U/mL penicillin and 100 µg/mL […]
Multicellular Ca2+ imaging was performed using fluo2 and a Nipkow spinning disk confocal microscope, as detailed.[3] […]
through a 10/0.3 NA objective (EC Plan-Neofluar, Zeiss) using a solid-state laser (Cobalt), and emitted signals captured from λ = 500-550 nm using a Hammamatsu ImageEM EM-CCD camera. Photoswitching was performed using either a λ = 440 nm laser or the epifluorescent port of the microscope configured with a λ = 350 ± 20 nm band-pass filter. Throughout, HEPES-bicarbonate buffer was used, containing in mM: 120 NaCl, 4.8 KCl, 24 NaHCO3, 0.5 Na2HPO4, 5 […]
HEPES, 2.5 CaCl2 and 1.2 MgCl2. […]
High-throughput (HTS) Ca2+ assays were performed using the DiscoverX
HitHunter No Wash PLUS assay. Treatments were automatically delivered at 37 °C using a BMG Labtech NOVOstar platereader and fluorescence intensity read […]
over 30-45 s. […] For all […]
transilluminator to induce cis-isomerization, or kept in the dark to maintain the […]
trans-isomer. […]
as §4, §5

MIN6 beta cells [3] = assay: Apoptosis induced by glucolipotoxicity in MIN6 beta cells (cleaved caspase 3); format: cell-based; settings: 500 nM, 24 h, 33 mM glucose + 0.5 mM palmitate, n=8 repeats
Procedure: MIN6 cells (a kind gift from Dr Jun-ichi Miyazaki, Osaka University) were cultured in DMEM supplemented with 15% FBS, 10 mM glutamine, 20 mM HEPES, 0.0005% β-mercaptoethanol 100 U/mL penicillin and 100 µg/mL […]
Apoptosis was assessed using a DeadEnd Fluorimetric
TUNEL System staining kit (Promega).[3] The apoptotic cell mass was calculated as a fraction area versus the total cell mass. To investigate the pro-survival […]
(§6) mixture (33 mM glucose + 0.5 mM palmitate) in the presence or absence of compound. Apoptosis was subsequently determined using specific fluorescent immunostaining and a rabbit polyclonal antibody against cleaved caspase 3 (Cell Signaling Technology # 9661; 1:400), before analysis as above. […]

[4] = test system: pancreatic beta cells within intact islets; assay: Multicellular Ca2+ imaging in intact islets of Langerhans; format: cell-based, mouse; settings: for effect on cytosolic Ca2+ levels / multicellular Ca2+ spiking in islets / Ca2+ rises / beta-cell activity at non-permissive (low) glucose: 150 nM; for effect on cytosolic Ca2+ levels / multicellular Ca2+ spiking in islets: permissive (>8 mM) glucose, blue 440 nm (trans), UV 350 nm (cis); for Ca2+ rises / beta-cell activity at non-permissive (low) glucose: G3, 3 mM glucose, n=5 recordings; for effect of GLP-1R blockade on trans-LirAzo-stimulated Ca2+ oscillations: Exendin 9-39 150 nM, n=9 recordings
Procedure: (§7) All procedures involving primary tissue were regulated by the Home Office according to the Animals (Scientific Procedures) Act 1986 of the United Kingdom […]
as §2, §3
Multicellular Ca2+ imaging was performed using fluo2 and a Nipkow spinning disk confocal microscope, as detailed.[3] Briefly, pulsed λ = 491 nm light was delivered through a 10/0.3 NA objective (EC Plan-Neofluar, Zeiss) using a solid-state laser (Cobalt), and emitted signals captured from λ = 500-550 nm using a Hammamatsu ImageEM EM-CCD camera. Photoswitching was performed using either a λ = 440 nm laser or the epifluorescent port of the microscope configured with a λ = 350 ± 20 nm band-pass filter. Throughout, HEPES-bicarbonate buffer was used, containing in mM: 120 NaCl, 4.8 KCl, 24 NaHCO3, 0.5 Na2HPO4, 5 HEPES, 2.5 CaCl2 and 1.2 MgCl2. Compounds and D-glucose were added as […]

MIN6 beta cells [5] = assay: cAMP responses in MIN6 beta cells (Cisbio HTRF cAMP assay); format: cell-based; settings: permissive (>8 mM) glucose, n=7 repeats
Procedure: as §7, §2, §3
Chinese Hamster Ovary (CHO) cells stably expressing the GLP-1R were cultured in Dulbecco's Modified Eagle's Medium (DMEM) supplemented with 10% FBS, 1 x non-essential amino acids, 25 mM HEPES, 100 U/mL penicillin and 100 µg/mL streptomycin. […]
(§8) (live) and 2.5 µM of propidium iodide (dead), and […]/emission detected at λ = 491/525 nm and λ = 561/620 nm, respectively. The area of dead:live cells was calculated as a ratio. Apoptosis was assessed using a DeadEnd Fluorimetric TUNEL System staining kit (Promega).[3] The apoptotic cell mass was calculated as a fraction area versus the total cell mass. […]
as §6
HitHunter No Wash PLUS assay. […] Absorbance/emission were detected at λ = 488/525 nm. […]

islets = assay: Cytotoxicity (dead:live and TUNEL) in islets; format: cell-based, mouse; settings: 11 mM glucose-only; n=8-9 islets
Procedure: as §7, §2, §3
Cytotoxicity and apoptosis assays
as §8

## CC[C@H](C)[C@H](NC(=O)[C@H](Cc1ccccc1)NC(=O)[C@H](CCC(=O)O)NC(=O)[C@H](CCCCN)NC(=O)[C@H](C)NC(=O)[C@H](C)NC(=O)Cc1cccc(/N=N\c2cccc(CNC(=O)[C@H](CCC(=O)O)NC(=O)[C@H](CC(C)C)NC(=O)[C@H](Cc3ccc(O)cc3)NC(=O)[C@H](CO)NC(=O)[C@H](CO)NC(=O)[C@@H](NC(=O)[C@H](CC(=O)O)NC(=O)[C@H](CO)NC(=O)[C@@H](NC(=O)[C@H](Cc3ccccc3)NC(=O)[C@@H](NC(=O)CNC(=O)[C@H](CCC(=O)O)NC(=O)[C@H](C)NC(=O)[C@@H](N)Cc3c[nH]cn3)[C@@H](C)O)[C@@H](C)O)C(C)C)c2)c1)C(=O)N[C@@H](C)C(=O)N[C@@H](Cc1c[nH]c2ccccc12)C(=O)N[C@@H](CC(C)C)C(=O)N[C@H](C(=O)N[C@@H](CCCNC(=N)N)C(=O)NCC(=O)N[C@@H](CCCNC(=N)N)C(=O)NCC(=O)O)C(C)C [cis‐LirAzo] (H-HAEGTFTSDVSSYLE[X2]AAKEFIAWLVRGRG-OH)
[1]
  photoswitching kinetics τ1: 51.0 ± 2.4 s
  photoswitching kinetics τ2: 11.1 ± 4.0 min
Mouse islets
  potentiation of glucose-stimulated insulin secretion (versus G8): potentiate
  augmentation of glucose-stimulated insulin secretion: ca. 2.5 fold
MIN6 beta cells [2]; Figure S6
  Ca2+ fluxes versus control injection (high glucose alone): only just above those observed following control injection
MIN6 beta cells [2]
  signaling pathways engaged (Ca2+ rises with pathway antagonists): signaled via the cAMP binding partners Epac2 and PKA, as well as IP3
MIN6 beta cells [3]
  protection from apoptosis induced by glucolipotoxic insult: Lira and trans‐LirAzo are more protective than cis‐LirAzo
[4]
  effect on cytosolic Ca2+ levels / multicellular Ca2+ spiking in islets: reduced
MIN6 beta cells [5]
  cAMP concentration response in MIN6 beta cells, cis versus trans: significantly left‐shifted, with a higher maximal response

## CC[C@H](C)[C@H](NC(=O)[C@H](Cc1ccccc1)NC(=O)[C@H](CCC(=O)O)NC(=O)[C@H](CCCCN)NC(=O)[C@H](C)NC(=O)[C@H](C)NC(=O)Cc1cccc(/N=N/c2cccc(CNC(=O)[C@H](CCC(=O)O)NC(=O)[C@H](CC(C)C)NC(=O)[C@H](Cc3ccc(O)cc3)NC(=O)[C@H](CO)NC(=O)[C@H](CO)NC(=O)[C@@H](NC(=O)[C@H](CC(=O)O)NC(=O)[C@H](CO)NC(=O)[C@@H](NC(=O)[C@H](Cc3ccccc3)NC(=O)[C@@H](NC(=O)CNC(=O)[C@H](CCC(=O)O)NC(=O)[C@H](C)NC(=O)[C@@H](N)Cc3c[nH]cn3)[C@@H](C)O)[C@@H](C)O)C(C)C)c2)c1)C(=O)N[C@@H](C)C(=O)N[C@@H](Cc1c[nH]c2ccccc12)C(=O)N[C@@H](CC(C)C)C(=O)N[C@H](C(=O)N[C@@H](CCCNC(=N)N)C(=O)NCC(=O)N[C@@H](CCCNC(=N)N)C(=O)NCC(=O)O)C(C)C [trans‐LirAzo] (H-HAEGTFTSDVSSYLE[X1]AAKEFIAWLVRGRG-OH)
[1]
  photoswitching kinetics τ1: 32.3 ± 1.6 s
  photoswitching kinetics τ2: 7.5 ± 3.4 min
Mouse islets
  augmentation of glucose-stimulated insulin secretion: ca. 1.4 fold
MIN6 beta cells [2]
  signaling pathways engaged (Ca2+ rises with pathway antagonists): signaled via the cAMP binding partners Epac2 and PKA, as well as IP3
MIN6 beta cells [3]
  protection from apoptosis induced by glucolipotoxic insult: more protective than cis‐LirAzo
MIN6 beta cells [3]; listed as trans isomer of LirAzo
  protection from apoptosis induced by glucolipotoxic insult: significant protection
islets
  islet cell apoptosis under normal conditions (TUNEL): do not induce
[4]
  effect on cytosolic Ca2+ levels / multicellular Ca2+ spiking in islets: induced increases in the baseline amplitude and frequency of multicellular Ca^2+ spiking
  Ca2+ rises / beta-cell activity at non-permissive (low) glucose: unable to stimulate changes in beta‐cell activity
[4]; listed as trans-LirAzo
  Ca2+ rises / beta-cell activity at non-permissive (low) glucose: unable

## exendin 9–39 [reference compound]
[4]
  effect of GLP-1R blockade on trans-LirAzo-stimulated Ca2+ oscillations: abolished
[4]; listed as Exendin 9-39
  effect of GLP-1R blockade on trans-LirAzo-stimulated Ca2+ oscillations: abolishes
